Data from PMC12915096, “AI‐Driven Acceleration of Fluorescence Probe Discovery” (Advanced Science, 2025).

Biological target: T1, tau aggregates in cleared P301S mice brain (Homo sapiens, UniProt P10636, P618S)
T1 construct: from tissue; host or cells: brain of 9-month-old P301S (PS19) tau transgenic mice, in vivo and ex vivo
Test: 3D transparent brain imaging after tissue clearing
Format: in vivo
Details: transgenic mouse brains, ex vivo
Experimental: After two‐photon imaging, mice were anesthetized by isoflurane and were transcardially perfused with ice‐cold 1×PBS followed with ice‐cold 4% PFA solution. Brain was incubated in 4% PFA at 4°C with shaking overnight. The samples were then washed with 1×PBS for at least 2 h twice at room temperature. The clearing of the fixed samples was conducted with Nuohai enhanced tissue clearing kit (NH‐CR‐230701, Nuohai Life Science (Shanghai) Co., Ltd). Briefly, samples were immersed individually in 20 mL of solution A for 7–8 days (refreshing the solution every two days) with gentle shaking at 37°C. The sample was washed in 1×PBS for 6 h with gentle shaking at room temperature and the PBS refreshed every 2 h. Finally, the samples were RI matched for 3D imaging. 3D fluorescence imaging of the cleared tissues was conducted with a Nuohai LS 18 tiling light sheet microscope (Nuohai Life Science Co., Ltd). A 4‐tile tiling light sheet was used to illuminate the samples, and a 1 × 0.25 NA objective (Olympus MVPLAPO) was used to collect the fluorescence. The magnification of the microscope was set at 4×, and the spatial resolution was roughly 3.3 × 3.3 × 7 µm^3 at the selected imaging conditions. The collected images were processed with the LS 18 image combine software (Nuohai Life Science Co., Ltd) and rendered using Amira (Thermo Fisher Scientific, USA). […]

T1 sequence (P10636 1-412 isoform P10636-7 P272S): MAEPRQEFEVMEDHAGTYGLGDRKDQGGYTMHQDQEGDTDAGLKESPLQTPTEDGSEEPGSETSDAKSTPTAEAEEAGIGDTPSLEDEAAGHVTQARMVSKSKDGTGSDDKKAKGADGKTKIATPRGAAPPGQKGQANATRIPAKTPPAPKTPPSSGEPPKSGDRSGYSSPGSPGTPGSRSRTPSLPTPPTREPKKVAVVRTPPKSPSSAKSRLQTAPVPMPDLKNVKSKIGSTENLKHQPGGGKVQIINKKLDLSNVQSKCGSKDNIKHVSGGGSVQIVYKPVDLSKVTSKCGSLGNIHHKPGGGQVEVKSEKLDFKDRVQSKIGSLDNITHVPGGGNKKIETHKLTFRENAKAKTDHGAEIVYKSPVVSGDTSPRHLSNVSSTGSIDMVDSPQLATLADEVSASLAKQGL

How did the “Tau labeling signal after 8 days of tissue clearing” value turn out when `O=C(O)c1cc(/C=C/c2ccc(/C=C/c3ccc(O)c(C(=O)O)c3)c(F)c2)ccc1O` [FSB] was run?
The value was “nearly abolished”.
